Test results taken from patent publication US20090298938A1, “USE OF SEMI SYNTHETIC ANALOGUES OF BOSWELLIC ACIDS FOR ANTICANCER ACTIVITY” (COUNCIL OF SCIENTIFIC & INDUSTRIAL RESEARCH, priority 2008, published 2009).
Entries after “also recorded” stand apart in the source; their conditions may differ.

How the values were obtained:
Format in all cases: cell-based, human
[1] = system: HL-60 cells; assay: Reactive oxygen species (peroxides), DCFH-DA flow cytometry
Experimental: FIG. 4. Boswellic acid analogs produce early generation of reactive oxygen species. In order to determine the intracellular content of intracellular peroxides, HL-60 cells in both treated and untreated control groups of 1×10^6 cells were incubated with […] of DCFH-DA for 30 min prior to termination of a 6 hr treatment with the indicated concentrations of compound designated “c” which is the compound of formula 1, wherein R3=COCH2CH2CH3, […], R4+R5=O. Treatment with the compound designated “c” was associated with an increase in DCFH-DA derived fluorescence. The compound of formula 1 where R3=COCH2CH2CH3, […], R4+R5=O was taken as a prototype to investigate the mechanism of cell death mediated by induction of apoptosis. […] At the highest concentration used the peroxide generation was relatively of low order because of ROS associated cell death. BSO was used as positive control. The endogenous generation of peroxides was measured using a non-fluorescent probe DCFH-DA which upon entering the cell is deesterified to DCFH which is oxidized by the reactive oxygen species to a fluorescent product DCF that remains entrapped within the cells offering analysis by flow cytometery [[…] et al, 2006]. […] Thereafter cells were washed and stained for 1 hr with DCFH-DA and analysed on flow cytometer. […]

[2] = system: HL-60 cells; assay: Endogenous nitric oxide, DAF-2-DA flow cytometry; conditions: HL-60, 4 hr
Experimental: FIG. 5. Copious early endogenous formation of nitric oxide by compound of formula 1 where R3=COCH2CH2CH3, R1=H, R4+R5=O in HL-60 cells. Nitric Oxide (NO) production was measured by flow cytometry in the FL1 channel using DAF-2-DA (an NO probe) after exposing HL-60 cells for 4 hours to indicated concentrations of SS-145. To investigate the contribution of iNOS to NO production, cells were pre-incubated with iNOS inhibitor sMIT (0.5 mM) for 1 hour prior to treatment with a compound designated “c” (a compound of formula 1 wherein R3=COCH2CH2CH3, R1=H, R4+R5=O). NO and peroxide generation are the early events leading to oxidative stress in the cells. […] It is possible that NO stimulated mitochondrial superoxide generation which together with NO may form peroxynitrite, a dangerous species in producing oxidative damage to the cells and responsible for production of apoptosis
Measurement of in situ NO generation involved the use of a fluorescent probe diaminofluoresceine-2-diacetate, which is permeated easily into the cells. Once inside the cell it binds NO soon it is formed and emits fluorescence [H. Kojima et al, 1998]. For this purpose, the HL-60 cells were incubated with DAF-2-DA for 30 min before being incubated with the indicated concentration of SS-145 for 4 hr. Cells were analyzed on flow cytometer in FL-1 channel for NO. […]

[3] = system: HL-60 cells; assay: Apoptosis induction, annexin V-FITC/PI flow cytometry; conditions: HL-60, 15 μM, 6 hr
Experimental: FIG. 2. Comparative efficacy of apoptosis induction: Measurement by flow cytometry. The effects of boswellic acid on the relative efficiency of induction of apoptosis and necrosis in HL-60 cells were analyzed by flow cytometry. Cells were incubated with each analog for 6 hrs and stained with annexin V-FITC labeled. The dot plots are representative of one of the two separate experiments. Values in the lower right quadrant represent the apoptotic population in the UR as post-apoptotic and in the UL as necrotic. Where a=compound of formula 1, R3=COCH2CH2CH3, […], R4=[…], b=compound of formula 1, R3=COCH2CH3R1=H, R4=[…], c=compound of formula 1, R3=COCH2CH2CH3, […], R4+R5=O, d=compound of formula 1, […], R3=COCH2CH3, R4=[…], e=compound of formula 1, R3=COCH2CH2CH3, […], R4=[…], f=β-boswellic acid. Compounds of formula 1 where […], R3=COCH2CH3R3=[…]; R3=COCH2CH2CH3, […], R4=[…] and natural β-boswellic acid produced low level of apoptotic cell population (approx. 10%) compared to compound of formula 1 where R3=COCH2CH2CH3, […], R4=[…] (17%), […], R3=COCH2CH3, R4=[…] (30%) and where R3=COCH2CH2CH3, […], R4+R5=O (23%), although the combined apoptotic and post-apoptotic population was about 32% with the last three analogs. Confirmation that boswellic acid analogs are potent inducers of apoptosis may also be obtained from DNA fragmentation assay. During the early events of apoptosis, phospholipid phosphatidyl serine of plasma membrane is externalized, which has very high affinity for annexinV antibody. Effect of a single concentration (15 μM) of each boswellic acid analogs on the relative efficiency of induction of apoptosis and necrosis in HL-60 cells was analyzed by flow cytometry. Cells were incubated with each analog for 6 hr and stained with Annexin V-FITC/PI. Camptothecin at 4 μM was used as positive control. There after, cells were washed and stained with FITC conjugated annexinV antibody and propidium iodide. The cells (10,000) were analysed by flow cytometery (BD, LSR) using ProQuest software.

CCCC(=O)OC1CCC2(C)C(CCC3(C)C2C(=O)C=C2C4C(C)C(C)CCC4(C)CCC23C)C1(C)C(=O)O (centres unmarked) [R3=COCH2CH2CH3, R1=H, R4+R5=O]
peroxide positive cell population ([1]; HL-60, 50 μg/ml, 6 hr): 79% | ROS / peroxide generation (concentration dependence) ([1]; HL-60, 6 hr, DCFH-DA): concentration related increase in ROS generation; also recorded: dose dependent increase | nitric oxide generation [2]: early generation of NO; also recorded: all the cells formed NO within 6 hr irrespective of the concentration | apoptotic cell population [3]: 23% | combined apoptotic and post-apoptotic population [3]: about 32%
